Source: patent US9474790B2, “Stable, protracted GLP-1/glucagon receptor co-agonists for medical use” (Novo Nordisk A/S, priority 2013, dated 2016)
Numbered stars: 1 amine (or outer) side, 2 acyl side, 3 side chain; on linkers, the order of the positions; unused ones are H or OH. Square brackets hold non-standard residues; d marks the D form. Side chains are listed from the residue outwards. Peptide text beside a SMILES is read from it. * marks the point of attachment. C18 diacid = O=C(O)CCCCCCCCCCCCCCCCC(=O)*; γGlu = O=C(O)[C@H](CCC(=O)[*:2])N[*:1]; Ac4c = NC1(C(=O)O)CCC1; AEEA = NCCOCCOCC(=O)O; Aib = CC(C)(N)C(=O)O

Assays:
[1] = Chemical stability assessment by RP-UPLC; assay type: physicochemical; settings: 333 μM, 8 mM phosphate buffer pH 7.3, 37° C. vs 5° C.
How it was run: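 Purity loss = (purity after 14 days at 5° C. minus that at 37° C.) relative to the 5° C. value, purity being main-peak area % by RP-UPLC with UV at 215 nm. Samples were 333 μM in 8 mM phosphate, pH 7.3; gradient adjusted for outlying retention times.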

human GLP-1 receptor = target: T1, human GLP-1 receptor (Homo sapiens, UniProt P43220); assay: GLP-1 receptor binding, 125I-GLP-1 displacement SPA on isolated membranes; settings: displacement of 125I-GLP-1 from membranes; read-out: IC50 GLP-1R
T1 construct: expressed in transfected cells; host or cells: BHK cells (parent BHKTS13), clone FCW467-12A/KZ10-1, with CRE luciferase
How it was run: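 Test derivatives, serially diluted, competed with 125I-GLP-1(7-36)NH2 for the human GLP-1 receptor on BHK membranes, read by WGA-bead scintillation proximity after 2 h at 30°C, pH 7.4 HEPES/EGTA/MgCl2 buffer. Final serum albumin was either ≤0.001% or 2.0%; IC50 from non-linear fit.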

T1 sequence (P43220 24-463): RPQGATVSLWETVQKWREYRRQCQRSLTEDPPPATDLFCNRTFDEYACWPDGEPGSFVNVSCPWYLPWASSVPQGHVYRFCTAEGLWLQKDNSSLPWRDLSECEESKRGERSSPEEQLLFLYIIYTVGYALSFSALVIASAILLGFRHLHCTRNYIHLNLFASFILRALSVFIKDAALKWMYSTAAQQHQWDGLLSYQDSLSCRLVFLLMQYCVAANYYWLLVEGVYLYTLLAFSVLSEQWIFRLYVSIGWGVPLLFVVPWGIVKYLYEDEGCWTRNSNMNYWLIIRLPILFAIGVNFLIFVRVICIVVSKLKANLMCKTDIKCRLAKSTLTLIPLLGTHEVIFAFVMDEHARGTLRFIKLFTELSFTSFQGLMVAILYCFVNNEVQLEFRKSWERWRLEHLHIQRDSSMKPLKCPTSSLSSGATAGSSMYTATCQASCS

Row | SMILES | Purity loss; 14 days at 37° C. [1] [%] | IC50 (human GLP-1 receptor) [nM]
1 | CC(C)C[C@H](NC(=O)[C@H](CC(=O)O)NC(=O)[C@H](CC(C)C)NC(=O)[C@H](Cc1ccc(O)cc1)NC(=O)[C@H](CCCCN)NC(=O)[C@H](CO)NC(=O)[C@H](CC(C)C)NC(=O)[C@H](CC(=O)O)NC(=O)[C@H](CO)NC(=O)[C@@H](NC(=O)[C@H](Cc1ccccc1)NC(=O)[C@@H](NC(=O)CNC(=O)[C@H](CCC(N)=O)NC(=O)C1(NC(=O)[C@@H](N)Cc2c[nH]cn2)CCC1)[C@@H](C)O)[C@@H](C)O)C(=O)N[C@@H](CCCNC(=N)N)C(=O)N[C@@H](CCCNC(=N)N)C(=O)N[C@@H](C)C(=O)N[C@@H](CCCNC(=N)N)C(=O)N[C@@H](CC(=O)O)C(=O)N[C@@H](Cc1ccccc1)C(=O)N[C@H](C(=O)N[C@@H](CCC(N)=O)C(=O)N[C@@H](Cc1c[nH]c2ccccc12)C(=O)N[C@@H](CC(C)C)C(=O)N[C@@H](CC(C)C)C(=O)N[C@@H](CCCCNC(=O)CC[C@H](NC(=O)CC[C@H](NC(=O)COCCOCCNC(=O)COCCOCCNC(=O)CC[C@H](NC(=O)CC[C@H](NC(=O)CCCCCCCCCCCCCCCCC(=O)O)C(=O)O)C(=O)O)C(=O)O)C(=O)O)C(=O)N[C@H](C(N)=O)[C@@H](C)O)C(C)C [Example 45, N^ε28-[(4S)-4-carboxy-4-[[(4S)-4-carboxy-4-[[2-[2-[2-[[2-[2-[2-[[(4S)-4-carboxy-4-[[(4S)-4-carboxy-4-(17-carboxyheptadecanoylamino)butanoyl]amino]butanoyl]amino]ethoxy]ethoxy]acetyl]amino]ethoxy]ethoxy]acetyl]amino]butanoyl]amino]butanoyl]-[Acb2,Leu10,Leu16,Arg20,Leu27,Lys28]-Glucagon amide] (H-H[Ac4c]QGTFTSDLSKYLDLRRARDFVQWLLK([γGlu-γGlu-AEEA-AEEA-γGlu-γGlu-C18 diacid])T-NH2; N-terminus assumed) | 3 | 0.4
2 | CC(C)C[C@H](NC(=O)[C@H](CC(=O)O)NC(=O)[C@H](CC(C)C)NC(=O)[C@H](Cc1ccc(O)cc1)NC(=O)[C@H](CCCNC(=N)N)NC(=O)[C@H](CO)NC(=O)[C@H](CC(C)C)NC(=O)[C@H](CC(=O)O)NC(=O)[C@H](CO)NC(=O)[C@@H](NC(=O)[C@H](Cc1ccccc1)NC(=O)[C@@H](NC(=O)CNC(=O)[C@H](CCC(N)=O)NC(=O)C1(NC(=O)[C@@H](N)Cc2c[nH]cn2)CCC1)[C@@H](C)O)[C@@H](C)O)C(=O)N[C@@H](CCCNC(=N)N)C(=O)N[C@@H](CCCNC(=N)N)C(=O)N[C@@H](C)C(=O)N[C@@H](CCCNC(=N)N)C(=O)N[C@@H](CC(=O)O)C(=O)N[C@@H](Cc1ccccc1)C(=O)N[C@H](C(=O)N[C@@H](CCC(N)=O)C(=O)N[C@@H](Cc1c[nH]c2ccccc12)C(=O)N[C@@H](CC(C)C)C(=O)N[C@@H](CC(C)C)C(=O)N[C@@H](CCCCNC(=O)CC[C@H](NC(=O)CC[C@H](NC(=O)COCCOCCNC(=O)COCCOCCNC(=O)CC[C@H](NC(=O)CC[C@H](NC(=O)CCCCCCCCCCCCCCCCC(=O)O)C(=O)O)C(=O)O)C(=O)O)C(=O)O)C(=O)N[C@H](C(N)=O)[C@@H](C)O)C(C)C [Example 46, N^ε28-[(4S)-4-carboxy-4-[[(4S)-4-carboxy-4-[[2-[2-[2-[[2-[2-[2-[[(4S)-4-carboxy-4-[[(4S)-4-carboxy-4-(17-carboxyheptadecanoylamino)butanoyl]amino]butanoyl]amino]ethoxy]ethoxy]acetyl]amino]ethoxy]ethoxy]acetyl]amino]butanoyl]amino]butanoyl]-[Acb2,Leu10,Arg12,Leu16,Arg20,Leu27,Lys28]-Glucagon amide] (H-H[Ac4c]QGTFTSDLSRYLDLRRARDFVQWLLK([γGlu-γGlu-AEEA-AEEA-γGlu-γGlu-C18 diacid])T-NH2; N-terminus assumed) | 1 | 1.1

Compounds with a lower IC50 (human GLP-1 receptor), results first:

Row | Purity loss; 14 days at 37° C. [1] [%] | IC50 (human GLP-1 receptor) [nM] | SMILES
3 | 2 | 0.3 | CC(C)C[C@H](NC(=O)[C@H](Cc1ccc(O)cc1)NC(=O)[C@H](CCCCN)NC(=O)[C@H](CO)NC(=O)[C@H](CC(C)C)NC(=O)[C@H](CC(=O)O)NC(=O)[C@H](CO)NC(=O)[C@@H](NC(=O)[C@H](Cc1ccccc1)NC(=O)[C@@H](NC(=O)CNC(=O)[C@H](CCC(N)=O)NC(=O)C(C)(C)NC(=O)[C@@H](N)Cc1c[nH]cn1)[C@@H](C)O)[C@@H](C)O)C(=O)N[C@@H](CC(=O)O)C(=O)N[C@@H](C)C(=O)N[C@@H](CCCNC(=N)N)C(=O)N[C@@H](CCCNC(=N)N)C(=O)N[C@@H](C)C(=O)N[C@@H](CCCNC(=N)N)C(=O)N[C@@H](CCC(=O)O)C(=O)N[C@@H](Cc1ccccc1)C(=O)N[C@H](C(=O)N[C@@H](CCC(N)=O)C(=O)N[C@@H](Cc1c[nH]c2ccccc12)C(=O)N[C@@H](CC(C)C)C(=O)N[C@@H](CC(C)C)C(=O)N[C@@H](CCCCNC(=O)CC[C@H](NC(=O)CC[C@H](NC(=O)COCCOCCNC(=O)COCCOCCNC(=O)CC[C@H](NC(=O)CCCCCCCCCCCCCCCCC(=O)O)C(=O)O)C(=O)O)C(=O)O)C(=O)N[C@H](C(N)=O)[C@@H](C)O)C(C)C [Example 43, N^ε28-[(4S)-4-carboxy-4-[[(4S)-4-carboxy-4-[[2-[2-[2-[[2-[2-[2-[[(4S)-4-carboxy-4-(17-carboxyheptadecanoylamino)butanoyl]amino]ethoxy]ethoxy]acetyl]amino]ethoxy]ethoxy]acetyl]amino]butanoyl]amino]butanoyl]-[Aib2,Leu10,Ala16,Arg20,Glu21,Leu27,Lys28]-Glucagon amide] (H-H[Aib]QGTFTSDLSKYLDARRAREFVQWLLK([γGlu-γGlu-AEEA-AEEA-γGlu-C18 diacid])T-NH2; N-terminus assumed)
4 | 2 | 0.3 | CC(C)C[C@H](NC(=O)[C@H](Cc1ccc(O)cc1)NC(=O)[C@H](CCCCN)NC(=O)[C@H](CO)NC(=O)[C@H](CC(C)C)NC(=O)[C@H](CC(=O)O)NC(=O)[C@H](CO)NC(=O)[C@@H](NC(=O)[C@H](Cc1ccccc1)NC(=O)[C@@H](NC(=O)CNC(=O)[C@H](CCC(N)=O)NC(=O)C1(NC(=O)[C@@H](N)Cc2c[nH]cn2)CCC1)[C@@H](C)O)[C@@H](C)O)C(=O)N[C@@H](CCC(=O)O)C(=O)N[C@@H](CO)C(=O)N[C@@H](CCCNC(=N)N)C(=O)N[C@@H](CCCNC(=N)N)C(=O)N[C@@H](C)C(=O)N[C@@H](CCCNC(=N)N)C(=O)N[C@@H](CCC(=O)O)C(=O)N[C@@H](Cc1ccccc1)C(=O)N[C@H](C(=O)N[C@@H](CCC(N)=O)C(=O)N[C@@H](Cc1c[nH]c2ccccc12)C(=O)N[C@@H](CC(C)C)C(=O)N[C@@H](CC(C)C)C(=O)N[C@@H](CCCCNC(=O)CC[C@H](NC(=O)CC[C@H](NC(=O)COCCOCCNC(=O)COCCOCCNC(=O)CC[C@H](NC(=O)CCCCCCCCCCCCCCCCC(=O)O)C(=O)O)C(=O)O)C(=O)O)C(=O)N[C@H](C(N)=O)[C@@H](C)O)C(C)C [Example 44, N^ε28-[(4S)-4-carboxy-4-[[(4S)-4-carboxy-4-[[2-[2-[2-[[2-[2-[2-[[(4S)-4-carboxy-4-(17-carboxyheptadecanoylamino)butanoyl]amino]ethoxy]ethoxy]acetyl]amino]ethoxy]ethoxy]acetyl]amino]butanoyl]amino]butanoyl]-[Acb2,Leu10,Glu15,Arg20,Glu21,Leu27,Lys28]-Glucagon amide] (H-H[Ac4c]QGTFTSDLSKYLESRRAREFVQWLLK([γGlu-γGlu-AEEA-AEEA-γGlu-C18 diacid])T-NH2; N-terminus assumed)
5 | 3 | 0.2 | CC(C)C[C@H](NC(=O)[C@H](CC(=O)O)NC(=O)[C@H](CC(C)C)NC(=O)[C@H](Cc1ccc(O)cc1)NC(=O)[C@H](CCCCN)NC(=O)[C@H](CO)NC(=O)[C@H](CC(C)C)NC(=O)[C@H](CC(=O)O)NC(=O)[C@H](CO)NC(=O)[C@@H](NC(=O)[C@H](Cc1ccccc1)NC(=O)[C@@H](NC(=O)CNC(=O)[C@H](CCC(N)=O)NC(=O)C1(NC(=O)[C@@H](N)Cc2c[nH]cn2)CCC1)[C@@H](C)O)[C@@H](C)O)C(=O)N[C@@H](CCCCN)C(=O)N[C@@H](CCCNC(=N)N)C(=O)N[C@@H](C)C(=O)N[C@@H](CCCNC(=N)N)C(=O)N[C@@H](CCC(=O)O)C(=O)N[C@@H](Cc1ccccc1)C(=O)N[C@H](C(=O)N[C@@H](CCC(N)=O)C(=O)N[C@@H](Cc1c[nH]c2ccccc12)C(=O)N[C@@H](CC(C)C)C(=O)N[C@@H](CC(C)C)C(=O)N[C@@H](CCCCNC(=O)CC[C@H](NC(=O)CC[C@H](NC(=O)COCCOCCNC(=O)COCCOCCNC(=O)CC[C@H](NC(=O)CC[C@H](NC(=O)CCCCCCCCCCCCCCCCC(=O)O)C(=O)O)C(=O)O)C(=O)O)C(=O)O)C(=O)N[C@H](C(N)=O)[C@@H](C)O)C(C)C [Example 47, N^ε28-[(4S)-4-carboxy-4-[[(4S)-4-carboxy-4-[[2-[2-[2-[[2-[2-[2-[[(4S)-4-carboxy-4-[[(4S)-4-carboxy-4-(17-carboxyheptadecanoylamino)butanoyl]amino]butanoyl]amino]ethoxy]ethoxy]acetyl]amino]ethoxy]ethoxy]acetyl]amino]butanoyl]amino]butanoyl]-[Acb2,Leu10,Leu16,Lys17,Arg20,Glu21,Leu27,Lys28]-Glucagon amide] (H-H[Ac4c]QGTFTSDLSKYLDLKRAREFVQWLLK([γGlu-γGlu-AEEA-AEEA-γGlu-γGlu-C18 diacid])T-NH2; N-terminus assumed)
